From patent publication US9815846B2 (Merck Sharp & Dohme Corp., priority 2014, dated 2017)
pIC50: −log10 of the molar value.

biological target: human TrkA receptor (Homo sapiens (Human), UniProt P04629); assay: DiscoverX PathHunter TrkA functional assay (NGF-stimulated U2OS cells); type: cell-based; conditions: U2OS cells expressing human TrkA-PK, Shc1-EA and p75NTR; compound 1 h, then NGF at ~80% of maximal response for 3 h; luminescence
Sequence (P04629 33-796): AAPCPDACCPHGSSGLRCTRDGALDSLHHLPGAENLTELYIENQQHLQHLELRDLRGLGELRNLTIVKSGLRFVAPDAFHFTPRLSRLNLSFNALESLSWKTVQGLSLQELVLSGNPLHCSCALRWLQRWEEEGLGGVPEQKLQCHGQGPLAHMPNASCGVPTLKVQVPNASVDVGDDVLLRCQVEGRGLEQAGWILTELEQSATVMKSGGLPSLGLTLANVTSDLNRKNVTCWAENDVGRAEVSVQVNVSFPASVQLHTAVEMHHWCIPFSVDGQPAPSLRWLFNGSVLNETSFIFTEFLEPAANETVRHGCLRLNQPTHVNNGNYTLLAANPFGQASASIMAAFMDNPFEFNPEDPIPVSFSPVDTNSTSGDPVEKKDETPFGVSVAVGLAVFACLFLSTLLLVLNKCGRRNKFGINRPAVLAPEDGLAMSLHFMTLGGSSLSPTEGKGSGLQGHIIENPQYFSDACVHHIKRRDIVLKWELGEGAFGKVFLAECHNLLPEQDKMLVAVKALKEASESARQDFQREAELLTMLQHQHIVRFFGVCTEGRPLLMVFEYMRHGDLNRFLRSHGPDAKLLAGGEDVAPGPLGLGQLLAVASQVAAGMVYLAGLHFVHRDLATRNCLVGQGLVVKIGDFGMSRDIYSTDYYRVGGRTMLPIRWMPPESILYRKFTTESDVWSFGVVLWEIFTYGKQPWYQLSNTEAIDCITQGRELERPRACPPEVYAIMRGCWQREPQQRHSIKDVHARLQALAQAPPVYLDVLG

Row | Compound | pIC50
1 | COCC(=O)NCc1ncc(NC(=O)c2cc(-c3ccn(C)n3)c(C(F)(F)F)cc2F)c(-c2ccccc2)n1 [Example 64, 2-fluoro-N-(2-((2-methoxyacetamido)methyl)-4-phenylpyrimidin-5-yl)-5-(1-methyl-1H-pyrazol-3-yl)-4-(trifluoromethyl)benzamide] | 9.36
2 | Cn1ccc(-c2cc(C(=O)Nc3cc4c(nc3-c3ccccc3)CCNC4=O)c(F)cc2C(F)(F)F)n1 [Example 152, 2-fluoro-5-(1-methyl-1H-pyrazol-3-yl)-N-(5-oxo-2-phenyl-5,6,7,8-tetrahydro-1,6-naphthyridin-3-yl)-4-(trifluoromethyl)benzamide] | 10.16
3 | NC(=O)c1cnc(-c2ccccc2)c(NC(=O)c2cc(-c3cc[nH]n3)c(C(F)(F)F)cc2F)c1 [Example 93, 5-(2-fluoro-5-(1H-pyrazol-3-yl)-4-(trifluoromethyl)benzamido)-6-phenylnicotinamide] | 8.24
4 | Cn1ccc(-c2cc(C(=O)Nc3ccc(CN4C(=O)CNC4=O)nc3-c3ccccc3)c(F)cc2C(F)(F)F)n1 [Example 98, N-(6-((2,5-dioxoimidazolidin-1-yl)methyl)-2-phenylpyridin-3-yl)-2-fluoro-5-(1-methyl-1H-pyrazol-3-yl)-4-(trifluoromethyl)benzamide] | 9.66
5 | Cn1ccc(-c2cc(C(=O)Nc3cnc(C(O)C(N)=O)nc3-c3ccccc3)c(F)cc2C(F)(F)F)n1 (stereo not drawn) [Example 118, N-(2-(2-amino-1-hydroxy-2-oxoethyl)-4-phenylpyrimidin-5-yl)-2-fluoro-5-(1-methyl-1H-pyrazol-3-yl)-4-(trifluoromethyl)benzamide] | 8.42
6 | Cn1ccc(-c2cc(C(=O)Nc3cnc(CC#N)nc3-c3ccccc3)c(F)cc2C(F)(F)F)n1 [Example 34, N-(2-(cyanomethyl)-4-phenylpyrimidin-5-yl)-2-fluoro-5-(1-methyl-1H-pyrazol-3-yl)-4-(trifluoromethyl)benzamide] | 9.16
7 | Cc1nc(C)c(NC(=O)c2ccc(C(F)(F)F)c(-c3ccn(C)n3)c2)c(-c2ccccc2)n1 [Example 26, N-(2,4-dimethyl-6-phenylpyrimidin-5-yl)-3-(1-methyl-1H-pyrazol-3-yl)-4-(trifluoromethyl)benzamide] | 6.68
8 | NC(=O)N1CCN(c2cnc(-c3ccccc3)c(NC(=O)c3cc(-c4ncccn4)c(C(F)(F)F)cc3F)c2)CC1 [Example 177, 4-(5-(2-fluoro-5-(pyrimidin-2-yl)-4-(trifluoromethyl)benzamido)-6-phenylpyridin-3-yl)piperazine-1-carboxamide] | 7.74

The next lines start with the values.

Row | pIC50 | Compound
9 | 8.59 | Cn1ccc(-c2cc(C(=O)Nc3cc(S(C)(=O)=O)cnc3-c3ccccc3)c(F)cc2C(F)(F)F)n1 [Example 194, 2-Fluoro-5-(1-methyl-1H-pyrazol-3-yl)-N-(5-(methylsulfonyl)-2-phenylpyridin-3-yl)-4-(trifluoromethyl)benzamide]
10 | 8.64 | Cn1ccc(-c2cc(C(=O)Nc3ccc(C(O)CO)nc3-c3ccccc3)c(F)cc2C(F)(F)F)n1 (single isomer, unassigned) [Example 192, (R or S)—N-(6-(1,2-Dihydroxyethyl)-2-phenylpyridin-3-yl)-2-fluoro-5-(1-methyl-1H-pyrazol-3-yl)-4-(trifluoromethyl)benzamide]
11 | 8.39 | Cn1ccc(-c2cc(C(=O)Nc3cnc(CN4C[C@@H](O)[C@@H](O)C4)nc3-c3ccccc3)c(F)cc2C(F)(F)F)n1 [Example 184, N-(2-(((3S,4R)-3,4-dihydroxypyrrolidin-1-yl)methyl)-4-phenylpyrimidin-5-yl)-2-fluoro-5-(1-methyl-1H-pyrazol-3-yl)-4-(trifluoromethyl)benzamide]
12 | 8.22 | Cn1ccc(-c2cc(C(=O)Nc3cc(CC(N)=O)cnc3-c3ccccc3)ccc2C(F)(F)F)n1 [Example 203, N-(5-(2-amino-2-oxoethyl)-2-phenylpyridin-3-yl)-3-(1-methyl-1H-pyrazol-3-yl)-4-(trifluoromethyl)benzamide]
